We go through 17 compounds from patent US20230165867A1 (CHENGDU BAIYU PHARMACEUTICAL CO., LTD., priority 2020, published 2023).

One data set concerns the target T1, DNA-PK kinase (Homo sapiens, UniProt P78527).
T1 construct: purchased Promega V4107
As to the kind of experiment: Inhibition assay of DNA-PK kinase (Promega kit, ADP-Glo chemiluminescence). The data set is classed as biochemical. As to conditions: 50 µM ATP, 37° C., 60 min; read-out: IC50 (nM), inhibitory activity on DNA-PK kinase. The procedure, abridged: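 Compounds incubated with DNA-PK at 37° C for 60 min; reaction stopped with ADP-Glo reagent (40 min, RT), then kinase detection reagent (30 min, RT). ADP formed read by luminescence against an ADP standard curve.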

The nature of data set [1]: Metabolic stability in liver microsomes. The note with it: human, human liver microsomes; 0.5 µM test substance, 0.5 mg/mL microsomes, NADPH and UDPGA, 37° C.; read-out: T½(min), stability in human liver microsomes. The data set is classed as in vitro ADME, human. On the procedure: Liver microsomes (purchased from Reed Liver Disease Research (Shanghai) Co., Ltd., product: human liver microsomes (NJT)); NADPH (purchased from Roche, Lot: 40939); UDPGA; the compounds of the present invention (test substances).
• (1) A mixed working solution of testosterone (0.5 µM) and 7-hydroxycoumarin (0.5 µM) was prepared. • (2) A mixed solution of NADPH (1 mM) and UDPGA (1 mM) was prepared, and prewarmed at 37° C. in a water bath shaker before use. • (3) Liver microsomes were thawed and diluted with a buffer. • (4) A preparation of a test substance (0.5 µM) and a solution of liver microsomes (0.5 mg/mL) were added to each well of an incubation plate. • (5) Three experimental groups were set and samples were added. Test group: the test substance was incubated with liver microsomes for 0 min, 30 min, 60 min, and 120 min in the presence of the coenzyme NADPH and UDPGA; Positive control group: testosterone (0.5 µM) and 7-hydroxycoumarin (0.5 µM) were incubated with microsomes for 0 min and 120 min in the presence of the coenzyme NADPH and UDPGA; Negative control group: the test substance was incubated with microsomes for 0 and 120 min without any coenzyme. • (6) All samples were incubated at 37° C., and pre-cooled methanol was added at each termination time (0, 15, 30, 45, 60 min, 120 min) to terminate the reaction, and the time was recorded. • (7) All samples were mixed well and centrifuged at 4000 rpm for 10 min. The supernatant was taken and measured by LC-MS/MS for the amount of the test substance remaining in the samples. Data analysis was carried out as follows: T½=0.693 /k, Clint = (0.693/T½) × (1 /(microsomal protein) × Scaling Factors), Note: k is the slope of the logarithm of the remaining amounts of compound versus time.

A short description of data set [2]: Pharmacokinetic assay in ICR mice (i.v. and p.o.). The data set is classed as in vivo. As to conditions: mouse, plasma, male ICR mice; for half-life: read-out: T½ (converted); for bioavailability: po 10 mg/kg vs iv 1 mg/kg. On the procedure: ICR mice were purchased from Beijing Vital River Laboratory Animal Technology Co., Ltd.
3.2 Experimental procedure • (1) Healthy male ICR mice (18-22 g) were prepared, with 18 mice for each compound. The mice were divided into 2 groups (an i.v. group and a p.o. group), with 9 mice per group. 3 mice were picked for blood collection at each time point. • (2) After the animals were fasted overnight (with free access to water), the compound of the present invention dissolved (or suspended) in a solvent of 5% DMSO and 95% 30% HP-β-CD (v:v) was administered via the tail vein (i.v., 1 mg/kg) or intragastrically (p.o., 10 mg/kg), respectively. • (3) For the i.v. group, 0.1 mL blood was collected from the submandibular vein 5 min, 15 min, 0.5 h, 1 h, 2 h, 4 h, 8 h, 12 h, and 24 h after administration, respectively, anticoagulated with EDTA-K2, and centrifuged at 4° C. for 5 min to obtain plasma, which was stored at -20° C. until testing. (4) For the p.o. group, 0.1 mL blood was collected from the submandibular vein before administration and 15 min, 0.5 h, 1 h, 2 h, 4 h, 6 h, 8 h, 12 h, and 24 h after administration, and treated in the same manner as that for the intravenous group. • (5) The concentration of the compound of the present invention in plasma was measured by LC/MS/MS. • (6) Calculation and fitting were performed with Analyst 1.6 from AB Company, and the results are shown in Table 3.

Each structure is given as a SMILES string. Like-named read-outs stand apart in the source and are kept apart here.

Regarding `Cc1cc(C#N)c(F)cc1Nc1ncc2c(n1)n(C1CCOCC1)c(=O)n2C` [Compound 8, 2-Fluoro-5-methyl-4-((7-methyl-8-oxo-9-(tetrahydro-2H-pyran-4-yl)-8,9-dihydro-7H-purin-2-yl)amino)benzonitrile], the IC50 on DNA-PK kinase was determined as 11.7 nM. In data set [1], the half-life at 0.5 µM was over 120 min.

`COc1cc(C)c(Nc2ncc3c(n2)n(C2CCOCC2)c(=O)n3C)cn1` [Compound 9, 2-((6-methoxy-4-methylpyridin-3-yl)amino)-7-methyl-9-(tetrahydro-2H-pyran-4-yl)-7,9-dihydro-8H-purin-8-one]: the IC50 on DNA-PK kinase turned out to be 0.47 nM. In addition, in data set [1], the half-life at 0.5 µM is over 120 min. For the same compound, in data set [2] (iv, 1 mg/kg), the AUC is 323 ng·h/mL and the half-life was 0.41 h. Also, the bioavailability in data set [2] amounted to 51.4%. Further, in data set [2] (po, 10 mg/kg), the AUC turned out to be 1660 ng·h/mL, the Cmax came out at 1490 ng/mL and the half-life is 1.34 h.

In the case of `Cn1c(=O)n(C2CCOCC2)c2nc(Nc3ccc(C(N)=O)cc3Cl)ncc21` [Compound 26, 3-Chloro-4-((7-methyl-8-oxo-9-(tetrahydro-2H-pyran-4-yl)-8,9-dihydro-7H-purin-2-yl)amino)benzamide], the IC50 at DNA-PK kinase turned out to be 7.6 nM. In data set [1], the half-life at 0.5 µM was over 120 min. In data set [2] (iv, 1 mg/kg), the AUC was 639 ng·h/mL and the half-life is 1.52 h. Moreover, the bioavailability in data set [2] was 110%. In data set [2] (po, 10 mg/kg), the AUC was 7100 ng·h/mL, the Cmax was 2730 ng/mL and the half-life is 2.99 h.

`CCNC(=O)c1ccc(Nc2ncc3c(n2)n(C2CCOCC2)c(=O)n3C)c(C)c1` [Compound 29, N-ethyl-3-methyl-4-((7-methyl-8-oxo-9-(tetrahydro-2H-pyran-4-yl)-8,9-dihydro-7H-purin-2-yl)amino)benzamide]: the IC50 on DNA-PK kinase came to 3.9 nM. Moreover, the half-life at 0.5 µM in data set [1] is over 120 min. In data set [2] (iv, 1 mg/kg), the AUC was 609 ng·h/mL and the half-life was 0.46 h. For the same compound, the bioavailability in data set [2] came out at 42.1%. Further, in data set [2] (po, 10 mg/kg), the exposure (AUC) was determined as 2560 ng·h/mL, the highest level (Cmax) was 1820 ng/mL and the half-life is 1.22 h.

Regarding `[2H]C([2H])([2H])Oc1cc(C)c(Nc2ncc3c(n2)n(C2CCOCC2)c(=O)n3C)cn1` [Compound 38, 2-((6-(methoxy-d3)-4-methylpyridin-3-yl)amino)-7-methyl-9-(tetrahydro-2H-pyran-4-yl)-7,9-dihydro-8H-purin-8-one], on DNA-PK kinase, the IC50 stood at 0.47 nM. Also, in data set [1], the half-life at 0.5 µM was over 120 min. In addition, in data set [2] (iv, 1 mg/kg), the AUC turned out to be 269 ng·h/mL and the half-life was 0.341 h. In data set [2], the bioavailability amounted to 47.7%. In data set [2] (po, 10 mg/kg), the AUC was 1310 ng·h/mL, the Cmax amounted to 2200 ng/mL and the half-life is 1.02 h.

With `[2H]C([2H])([2H])NC(=O)c1cc(C)c(Nc2ncc3c(n2)n(C2CCOCC2)c(=O)n3C)cn1` [Compound 39, 4-Methyl-N-(methyl-d3)-5-((7-methyl-8-oxo-9-(tetrahydro-2H-pyran-4-yl)-8,9-dihydro-7H-purin-2-yl)amino)picolinamide], the IC50 on DNA-PK kinase turned out to be 5.7 nM. Besides, in data set [1], the half-life at 0.5 µM was over 120 min.

With `Cc1sc(C(N)=O)cc1Nc1ncc2c(n1)n(C1CCOCC1)c(=O)n2C` [Compound 42, 5-Methyl-4-((7-methyl-8-oxo-9-(tetrahydro-2H-pyran-4-yl)-8,9-dihydro-7H-purin-2-yl)amino)thiophene-2-carboxamide], the IC50 at DNA-PK kinase is 2.05 nM. Further, in data set [1], the half-life at 0.5 µM was over 120 min. Also, in data set [2] (iv, 1 mg/kg), the area under the curve (AUC) turned out to be 230 ng·h/mL and the half-life is 1.41 h. For the same compound, the bioavailability in data set [2] was 70%. In data set [2] (po, 10 mg/kg), the AUC is 1500 ng·h/mL, the Cmax was determined as 858 ng/mL and the half-life is 1.73 h.

Regarding `[2H]C([2H])([2H])c1cc(C(N)=O)c(F)cc1Nc1ncc2c(n1)n(C1CCOCC1)c(=O)n2C` [Compound 44, 2-Fluoro-5-(methyl-d3)-4-((7-methyl-8-oxo-9-(tetrahydro-2H-pyran-4-yl)-8,9-dihydro-7H-purin-2-yl)amino)benzamide], the IC50 on DNA-PK kinase was determined as 1.1 nM. Moreover, in data set [1], the half-life at 0.5 µM is over 120 min.

As for `Cc1cc(C(N)=O)c(C(F)(F)F)cc1Nc1ncc2c(n1)n(C1CCOCC1)c(=O)n2C` [Compound 48, 5-Methyl-4-((7-methyl-8-oxo-9-(tetrahydro-2H-pyran-4-yl)-8,9-dihydro-7H-purin-2-yl)amino)-2-(trifluoromethyl)benzamide], on DNA-PK kinase, the IC50 came out at 1.96 nM. For the same compound, in data set [1], the half-life at 0.5 µM is over 120 min.

On to `CCOc1cc(Nc2ncc3c(n2)n(C2CCOCC2)c(=O)n3C)c(C)cc1C(N)=O` [Compound 53, 2-Ethoxy-5-methyl-4-((7-methyl-8-oxo-9-(tetrahydro-2H-pyran-4-yl)-8,9-dihydro-7H-purin-2-yl)amino)benzamide], for which the IC50 at DNA-PK kinase was 0.32 nM. In addition, the half-life at 0.5 µM in data set [1] was over 120 min.

As to `COc1cc(Nc2ncc3c(n2)n(C2CCOCC2)c(=O)n3C)c(C)cc1C(N)=O` [Compound 57, 2-Methoxy-5-methyl-4-((7-methyl-8-oxo-9-(tetrahydro-2H-pyran-4-yl)-8,9-dihydro-7H-purin-2-yl)amino)benzamide], the IC50 at DNA-PK kinase amounted to 3.98 nM. Further, the half-life at 0.5 µM in data set [1] was over 120 min.

With `Cc1cc(C(N)=O)c(F)cc1Nc1ncc2c(n1)n(C1CCCOC1)c(=O)n2C` (stereo not shown) [Compound 69, 2-fluoro-5-methyl-4-((7-methyl-8-oxo-9-(tetrahydro-2H-pyran-3-yl)-8,9-dihydro-7H-purin-2-yl)amino)benzamide], the IC50 at DNA-PK kinase was determined as 1.25 nM. In addition, in data set [1], the half-life at 0.5 µM was over 120 min.

Regarding `Cc1cc(C(N)=O)c(F)cc1Nc1ncc2c(n1)n(C1CCNCC1)c(=O)n2C` [Compound 81, 2-Fluoro-5-methyl-4-((7-methyl-8-oxo-9-(piperidin-4-yl)-8,9-dihydro-7H-purin-2-yl)amino)benzamide], the IC50 at DNA-PK kinase was found to be 47.1 nM. The half-life at 0.5 µM in data set [1] is over 120 min.

Regarding `Cc1cc(C(N)=O)c(F)cc1Nc1ncc2c(n1)n(C1CCN(C)CC1)c(=O)n2C` [Compound 82, 2-Fluoro-5-methyl-4-((7-methyl-9-(1-methylpiperidin-4-yl)-8-oxo-8,9-dihydro-7H-purin-2-yl)amino)benzamide], the IC50 at DNA-PK kinase worked out at 24.5 nM. Moreover, the half-life at 0.5 µM in data set [1] was over 120 min.

On to `Cc1cc(C(N)=O)c(F)cc1Nc1ncc2c(n1)n(C1CCC(F)(F)CC1)c(=O)n2C` [Compound 83, 4-((9-(4,4-difluorocyclohexyl)-7-methyl-8-oxo-8,9-dihydro-7H-purin-2-yl)amino)-2-fluoro-5-methylbenzamide], for which the IC50 on DNA-PK kinase was 0.43 nM. Besides, the half-life at 0.5 µM in data set [1] is over 120 min.

For the compound `Cc1cc(C(N)=O)c(F)cc1Nc1ncc2c(n1)n(C1CC3CCC(C1)O3)c(=O)n2C` (stereo not shown) [Compound 85, 4-((9-(8-oxabicyclo[3.2.1]octan-3-yl)-7-methyl-8-oxo-8,9-dihydro-7H-purin-2-yl)amino)-2-fluoro-5-methylbenzamide], the IC50 on DNA-PK kinase was determined as 1.1 nM. In addition, the half-life at 0.5 µM in data set [1] was over 120 min.

With `Cc1cc(C(N)=O)c(F)cc1Nc1ncc2c(n1)n([C@H]1C[C@H](O)C1)c(=O)n2C` [Compound 93, 2-Fluoro-4-((9-(trans-3-hydroxycyclobutyl)-7-methyl-8-oxo-8,9-dihydro-7H-purin-2-yl)amino)-5-methylbenzamide], the IC50 at DNA-PK kinase is 0.75 nM. The half-life at 0.5 µM in data set [1] is over 120 min.
